In US11882828B2, “Mosquito vector control compositions, methods and products utilizing same” (priority 2015, dated 2024):

Experiments:
Experiment in all cases: Example B5: bottle based cross resistance study (CDC bottle assay)
Type in all cases: in vivo
An. Gambiae Kisumu sus = conditions: Kisumu sus
An. Gambiae Tiassalé = system: An. Gambiae Tiassalé
An. stephensi = system: An. stephensi
FUMOZ = conditions: Anopheles funestus, 24 h, Table B5c; 25 ppm; after 24 hours; FUMOZ
How it was run: (§1)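 Glass bottles were coated with test compound from ethanol. Mortality was scored at 24 h after recovery on 10% sucrose; values are means of ≥4 replicates, with a susceptible strain run alongside.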

VK7 = conditions: Anopheles coluzzii, 24 h, Table B5c, after 24 hours
How it was run: as §1

CO/C=C(/C(=O)OC)c1ccccc1Oc1nc(C(C)(C)C)ns1 [Compound 7, Methyl (E)-2-[2-[(3-tert-butyl-1,2,4-thiadiazol-5-yl)oxy]phenyl]-3-methoxy-prop-2-enoate]
Knockdown (%) at 15 mins (An. Gambiae Kisumu sus; 20 ppm, bottle): 100%
Knockdown (%) at 60 mins (An. Gambiae Kisumu sus; 20 ppm, bottle): 100%
mortality at 20 ppm (An. Gambiae Kisumu sus; Anopheles gambiae, 20 ppm, bottle, one hour exposure, after 24 hours): 99%
mortality at 25 ppm (An. Gambiae Kisumu sus; Anopheles gambiae, 24 h, Table B5c, 25 ppm, after 24 hours): 97%
Knockdown (%) at 15 mins (An. Gambiae Tiassalé; 20 ppm, bottle, Tiassalé): 70%
Knockdown (%) at 60 mins (An. Gambiae Tiassalé; 20 ppm, bottle, Tiassalé): 97%
mortality at 20 ppm (An. Gambiae Tiassalé; Anopheles gambiae): 95%
Knockdown (%) at 15 mins (An. stephensi; 20 ppm, bottle, An. stephensi): 37%
Knockdown (%) at 60 mins (An. stephensi; 20 ppm, bottle, An. stephensi): 100%
mortality at 20 ppm (An. stephensi; Anopheles stephensi): 100%
mortality at 25 ppm (FUMOZ): 20%
mortality at 25 ppm (VK7): 19%
